This is an account of results in US20120245137A1 (Zalicus Pharmaceuticals Ltd., priority 2009, published 2012).

As usually defined, the IC50 is the midpoint of a concentration-inhibition curve.

What all share (type): cell-based
Assay [1] concerns the target Human Cav 2.2 channels (Homo sapiens, UniProt Q00975). The assay can be described thus: Fluorescent assay for CaV2.2 channels using potassium depolarization (VIPR/FLIPR). Conditions: FLIPR data; for CAv2.2 IC50 Ratio closed/inact.: ratio closed/inactivated IC50. An excerpt:
Human Cav 2.2 channels were stably expressed in HEK293 cells along with alpha2-delta and beta subunits of voltage-gated calcium channels. An inwardly rectifying potassium channel (Kir2.3) was also expressed in these cells to allow more precise control of the cell membrane potential by extracellular potassium concentration. At low bath potassium concentration, the membrane potential is relatively negative, and is depolarized as the bath potassium concentration is raised. In this way, the bath potassium concentration can be used to regulate the voltage-dependent conformations of the channels. […] After the incubation period, Cav2.2 channel opening is triggered by addition of higher concentration of potassium (70 mM final concentration) to further depolarize the cell. The degree of state-dependent block can be estimated from the inhibitory potency of compounds after incubation in different potassium concentrations.
Calcium influx through Cav 2.2 channels is determined using a calcium sensitive fluorescent dye in combination with a fluorescent plate reader. Fluorescent changes were measured with either a VIPR (Aurora Instruments) or FLIPR (Molecular Devices) plate reader.
1. Seed cells in Poly-D-Lysine Coated 96 or 384-well plate and keep in a 3rC-IO % C02 incubator overnight.
2. Remove media, wash cells with 0.2 mL (96-well plate) or 0.05 mL (384-well plate) Dulbecco's Phosphate Buffered Saline (D-PBS) with calcium & magnesium (Invitrogen; 14040).
3. Add 0.1 mL (96-well plate) or 0.05 mL (384-well plate) of 4˜M fluor-4 (Molecular Probes; F-14202) and 0.02% Pluronic acid (Molecular Probes; P-3(00) prepared in D-PBS with calcium & magnesium (Invitrogen; 14040) supplemented with 10 mM Glucose & 10 mM HepeslNaOH; pH 7.4.
4. Incubate in the dark at 25° C. for 60-70 min.
5. Remove dye, wash cells with 0.1 mL (96-well plate) or 0.06 mL (384-well plate) of 4, 12, 25, or 30 mM Potassium Pre-polarization Buffer (PPB).
6. Add 0.1 mL (96-well plate) or 0.03 mL (384-well plate) of 4, 12, 25, 30 mM PPB with or without test compound.
7. Incubate in the dark at 25° C. for 30 min
8. Read cell plate on VIPR instrument, Excitation=480 nm, Emission=535 nm.
9. With VIPR continuously reading, add 0.1 mL (96-well plate) or 0.03 mL (384-well plate) of Depolarization Buffer (DB), which is 2× the final assay concentration, to the cell plate.

Assay [2] addresses CAv1.2 (Homo sapiens, UniProt Q13936). The assay can be described thus: FLIPR data, CAv1.2 channel blocking (Table 6).
In assay [3] the target is T-type calcium channel (Homo sapiens, UniProt O95180). The assay can be described thus: T-type channel blocking, FLIPR data (Table 6). As to conditions: for CAv3.2 IC50 Ratio closed/inact.: CAv3.2, ratio closed/inactivated IC50. An excerpt: Another method, high-throughput spectrophotometric assay, utilizes loading of the cell lines with a fluorescent dye sensitive to intracellular calcium concentration and subsequent examination of the effects of compounds on the ability of depolarization by potassium chloride or other means to alter intracellular calcium levels.

[4] abbreviates: closed state, read-out: CAv2.2 IC50 Closed.
[5] abbreviates: inactivated state, read-out: CAv2.2 IC50 Inact.
[6] abbreviates: closed state, read-out: CAv1.2 IC50 Closed.
Where [7] appears, read: inactivated state, read-out: CAv1.2 IC50 Inact.
Setting [8] is: CAv3.2, closed state, read-out: CAv3.2 IC50 Closed.
Setting [9] is: CAv3.2, inactivated state, read-out: CAv3.2 IC50 Inact.

Read-outs that look alike come from different tables or passages of the source. Where only a bound is given, the exact number is not on record here.

Human Cav 2.2 channels, sequence (Q00975 whole entry): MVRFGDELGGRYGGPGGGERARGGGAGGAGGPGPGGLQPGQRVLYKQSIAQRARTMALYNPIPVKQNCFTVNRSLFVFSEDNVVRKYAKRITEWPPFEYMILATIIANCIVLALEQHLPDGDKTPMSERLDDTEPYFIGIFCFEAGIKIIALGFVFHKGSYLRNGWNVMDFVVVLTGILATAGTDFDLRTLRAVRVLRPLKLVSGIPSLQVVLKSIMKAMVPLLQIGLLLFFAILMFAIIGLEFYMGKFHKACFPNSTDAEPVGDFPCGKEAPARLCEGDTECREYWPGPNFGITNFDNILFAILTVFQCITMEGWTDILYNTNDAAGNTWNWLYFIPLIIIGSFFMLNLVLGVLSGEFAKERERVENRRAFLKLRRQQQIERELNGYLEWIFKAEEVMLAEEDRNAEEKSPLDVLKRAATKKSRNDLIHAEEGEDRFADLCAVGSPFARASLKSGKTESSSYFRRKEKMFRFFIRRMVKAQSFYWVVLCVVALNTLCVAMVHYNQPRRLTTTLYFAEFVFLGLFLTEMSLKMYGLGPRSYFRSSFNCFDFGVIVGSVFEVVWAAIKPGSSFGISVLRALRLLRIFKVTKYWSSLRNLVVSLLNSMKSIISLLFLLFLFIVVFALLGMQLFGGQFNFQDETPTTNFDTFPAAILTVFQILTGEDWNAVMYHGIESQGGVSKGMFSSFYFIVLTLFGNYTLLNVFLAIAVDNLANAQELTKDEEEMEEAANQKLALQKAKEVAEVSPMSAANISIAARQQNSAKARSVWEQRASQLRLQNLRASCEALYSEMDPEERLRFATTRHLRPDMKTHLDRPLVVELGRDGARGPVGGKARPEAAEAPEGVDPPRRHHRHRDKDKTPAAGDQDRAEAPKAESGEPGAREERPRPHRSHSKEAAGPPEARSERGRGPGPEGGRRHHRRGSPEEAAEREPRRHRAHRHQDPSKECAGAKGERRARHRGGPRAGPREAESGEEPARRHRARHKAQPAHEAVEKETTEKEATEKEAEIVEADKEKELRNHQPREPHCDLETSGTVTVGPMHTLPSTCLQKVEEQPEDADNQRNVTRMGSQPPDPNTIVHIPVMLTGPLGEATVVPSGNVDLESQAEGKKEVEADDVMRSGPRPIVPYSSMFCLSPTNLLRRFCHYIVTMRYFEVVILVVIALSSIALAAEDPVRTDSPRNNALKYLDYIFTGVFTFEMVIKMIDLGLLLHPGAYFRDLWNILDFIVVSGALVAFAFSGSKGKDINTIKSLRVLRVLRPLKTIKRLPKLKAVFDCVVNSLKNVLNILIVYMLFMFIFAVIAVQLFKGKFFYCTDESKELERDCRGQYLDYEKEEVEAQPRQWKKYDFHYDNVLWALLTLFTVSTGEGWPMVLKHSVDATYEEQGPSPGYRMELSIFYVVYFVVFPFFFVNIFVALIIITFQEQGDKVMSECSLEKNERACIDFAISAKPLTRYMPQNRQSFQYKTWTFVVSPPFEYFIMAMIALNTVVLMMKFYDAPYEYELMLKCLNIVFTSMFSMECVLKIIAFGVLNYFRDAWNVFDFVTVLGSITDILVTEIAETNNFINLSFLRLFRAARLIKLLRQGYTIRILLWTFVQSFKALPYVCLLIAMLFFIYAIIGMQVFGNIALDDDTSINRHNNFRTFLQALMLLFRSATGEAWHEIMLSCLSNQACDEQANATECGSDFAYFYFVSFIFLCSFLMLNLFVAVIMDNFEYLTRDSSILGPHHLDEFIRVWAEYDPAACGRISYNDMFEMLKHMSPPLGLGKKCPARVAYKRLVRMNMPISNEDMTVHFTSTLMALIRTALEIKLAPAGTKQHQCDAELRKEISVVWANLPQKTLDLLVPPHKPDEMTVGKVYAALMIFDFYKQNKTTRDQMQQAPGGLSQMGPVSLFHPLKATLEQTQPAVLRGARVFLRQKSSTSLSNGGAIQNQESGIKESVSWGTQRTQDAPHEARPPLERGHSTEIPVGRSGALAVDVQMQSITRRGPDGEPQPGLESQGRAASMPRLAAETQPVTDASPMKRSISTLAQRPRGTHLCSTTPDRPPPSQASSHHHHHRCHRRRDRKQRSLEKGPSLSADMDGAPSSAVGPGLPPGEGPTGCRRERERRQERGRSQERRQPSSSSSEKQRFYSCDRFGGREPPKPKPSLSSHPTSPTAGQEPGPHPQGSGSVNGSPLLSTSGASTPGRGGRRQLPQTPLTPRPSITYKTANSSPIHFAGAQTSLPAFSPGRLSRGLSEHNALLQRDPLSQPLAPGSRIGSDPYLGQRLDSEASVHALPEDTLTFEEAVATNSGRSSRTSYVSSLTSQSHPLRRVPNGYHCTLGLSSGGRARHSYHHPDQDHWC
Human Cav 2.2 channels, sequence (P54289 25-1103 partner): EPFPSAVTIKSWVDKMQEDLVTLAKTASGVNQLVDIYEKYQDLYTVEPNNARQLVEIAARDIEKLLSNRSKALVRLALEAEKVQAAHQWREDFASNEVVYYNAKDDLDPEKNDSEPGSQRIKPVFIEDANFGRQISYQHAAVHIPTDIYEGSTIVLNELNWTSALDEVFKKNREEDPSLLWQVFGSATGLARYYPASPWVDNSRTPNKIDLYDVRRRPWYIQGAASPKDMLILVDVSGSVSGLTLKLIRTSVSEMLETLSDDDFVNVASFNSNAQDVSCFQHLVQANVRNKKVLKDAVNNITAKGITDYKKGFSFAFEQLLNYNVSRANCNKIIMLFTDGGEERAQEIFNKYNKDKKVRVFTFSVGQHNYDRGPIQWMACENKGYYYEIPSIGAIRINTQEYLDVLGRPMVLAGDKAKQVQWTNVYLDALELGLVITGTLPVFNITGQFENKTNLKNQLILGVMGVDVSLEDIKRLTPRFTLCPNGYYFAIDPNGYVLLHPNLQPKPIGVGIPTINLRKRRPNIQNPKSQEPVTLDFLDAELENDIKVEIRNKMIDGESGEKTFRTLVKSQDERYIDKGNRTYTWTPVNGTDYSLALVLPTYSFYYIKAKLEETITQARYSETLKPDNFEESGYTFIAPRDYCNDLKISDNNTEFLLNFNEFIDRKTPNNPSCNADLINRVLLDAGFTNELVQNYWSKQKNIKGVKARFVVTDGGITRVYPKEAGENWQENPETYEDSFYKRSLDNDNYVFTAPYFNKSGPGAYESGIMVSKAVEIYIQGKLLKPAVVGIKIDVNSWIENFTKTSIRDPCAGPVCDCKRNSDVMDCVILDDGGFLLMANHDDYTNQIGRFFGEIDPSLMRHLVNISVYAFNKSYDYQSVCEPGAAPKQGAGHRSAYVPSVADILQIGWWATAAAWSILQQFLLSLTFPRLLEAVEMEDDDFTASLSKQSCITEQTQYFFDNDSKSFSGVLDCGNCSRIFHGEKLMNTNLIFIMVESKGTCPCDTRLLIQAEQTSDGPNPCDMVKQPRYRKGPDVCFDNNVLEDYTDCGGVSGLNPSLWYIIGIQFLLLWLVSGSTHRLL
Human Cav 2.2 channels, sequence (P54284 whole entry partner): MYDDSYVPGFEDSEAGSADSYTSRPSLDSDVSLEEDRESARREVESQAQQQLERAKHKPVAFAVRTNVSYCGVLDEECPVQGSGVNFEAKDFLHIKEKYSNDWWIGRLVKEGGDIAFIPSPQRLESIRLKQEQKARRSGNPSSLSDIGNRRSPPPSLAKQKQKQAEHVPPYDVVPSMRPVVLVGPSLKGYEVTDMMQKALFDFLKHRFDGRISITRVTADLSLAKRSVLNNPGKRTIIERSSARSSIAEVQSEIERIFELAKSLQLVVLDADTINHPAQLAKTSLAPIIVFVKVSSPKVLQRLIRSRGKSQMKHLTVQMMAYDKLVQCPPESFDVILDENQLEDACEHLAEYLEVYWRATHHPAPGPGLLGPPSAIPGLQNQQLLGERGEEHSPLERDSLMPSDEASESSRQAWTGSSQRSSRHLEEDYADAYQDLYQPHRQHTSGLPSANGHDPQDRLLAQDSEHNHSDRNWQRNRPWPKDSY

Regarding `CC(C)(C[C@H]1C[C@@H](NC(=O)c2ncc(C(F)(F)F)cc2S(C)(=O)=O)C1)S(=O)(=O)c1cccc(C(F)(F)F)c1` [Compound 730], the IC50 was 9.1 µM in assay [1] (setting [4]); 0.46 µM in assay [1] (setting [5]); at least 10 µM in assay [2] (setting [6]); at least 10 µM in assay [2] (setting [7]); at least 10 µM in assay [3] (setting [8]); 10 µM in assay [3] (setting [9]). In addition, the “CAv2.2 IC50 Ratio closed/inact.” value in assay [1] is reported as 19.8. For the same compound, in assay [3], the “CAv3.2 IC50 Ratio closed/inact.” value was 1.
As to `CC(C)(C[C@H]1C[C@H](NC(=O)[C@@H]2CCCC[C@H]2N)C1)S(=O)(=O)c1cccc(C(F)(F)F)c1` [Compound 728], the IC50 in assay [1] (setting [4]) is 3.64 µM; in assay [1] (setting [5]) it was 1.56 µM; in assay [2] (setting [6]) it was at least 10 µM; in assay [3] (setting [9]) it was 10 µM. The “CAv2.2 IC50 Ratio closed/inact.” value in assay [1] came to 2.3.
`CC(C)([C@H]1C[C@@H](NC(=O)c2ncc(C(F)(F)F)cc2S(C)(=O)=O)C1)S(=O)(=O)c1cccc(OC(F)(F)F)c1` [Compound 644]: the IC50 in assay [1] (setting [4]) was 10 µM; in assay [1] (setting [5]), 0.9 µM; in assay [2] (setting [7]), at least 10 µM; in assay [3] (setting [8]), at least 10 µM; in assay [3] (setting [9]), 10 µM. In assay [1], the “CAv2.2 IC50 Ratio closed/inact.” value amounted to 11.1. Further, the “CAv3.2 IC50 Ratio closed/inact.” value in assay [3] is 1.
For `CC(C)(C[C@H]1C[C@H](NC(=O)[C@@H]2CCCC[C@@H]2N)C1)S(=O)(=O)c1cccc(C(F)(F)F)c1` [Compound 727], the half-inhibitory concentration (IC50) was 4.1 µM in assay [1] (setting [4]), 0.95 µM in assay [1] (setting [5]), at least 10 µM in assay [2] (setting [7]) and 10 µM in assay [3] (setting [9]). Also, in assay [1], the “CAv2.2 IC50 Ratio closed/inact.” value was 4.3.
For the compound `CS(=O)(=O)c1cc(Cl)ccc1C(=O)NC[C@H]1C[C@H](S(=O)(=O)c2cc(F)cc(C(F)(F)F)c2)C1` [Compound 715], the IC50 in assay [1] (setting [4]) is 10 µM; in assay [1] (setting [5]), 1.38 µM; in assay [2] (setting [6]), at least 10 µM; in assay [2] (setting [7]), at least 10 µM; in assay [3] (setting [8]) it was at least 10 µM; in assay [3] (setting [9]) it was 7.51 µM. The “CAv2.2 IC50 Ratio closed/inact.” value in assay [1] is listed as 7.2. Moreover, the “CAv3.2 IC50 Ratio closed/inact.” value in assay [3] stood at 1.3.
As for `CC(C)([C@H]1C[C@@H](NC(=O)CC2(N)CCCCC2)C1)S(=O)(=O)c1cccc(OC(F)(F)F)c1` [Compound 655], the IC50 in assay [1] (setting [4]) was 6.52 µM; in assay [1] (setting [5]) it was 1.16 µM; in assay [2] (setting [6]), at least 10 µM; in assay [2] (setting [7]), at least 10 µM; in assay [3] (setting [9]), 10 µM. Moreover, the “CAv2.2 IC50 Ratio closed/inact.” value in assay [1] is listed as 5.6.
Turning to `Cc1nc(S(=O)(=O)N[C@H]2C[C@@H](C(C)(C)S(=O)(=O)c3cc(F)cc(C(F)(F)F)c3)C2)cn1C` [Compound 604], the IC50 was 10 µM in assay [1] (setting [4]); 4.38 µM in assay [1] (setting [5]); at least 10 µM in assay [2] (setting [6]); at least 10 µM in assay [2] (setting [7]); at least 10 µM in assay [3] (setting [8]). For the same compound, in assay [1], the “CAv2.2 IC50 Ratio closed/inact.” value was determined as 2.3.
`CS(=O)(=O)c1cc(C(F)(F)F)cnc1C(=O)NC[C@H]1C[C@H](S(=O)(=O)c2cc(F)cc(C(F)(F)F)c2)C1` [Compound 701]: the IC50 in assay [1] (setting [4]) was 10 µM; in assay [1] (setting [5]) it was 2.21 µM; in assay [2] (setting [7]), at least 10 µM; in assay [3] (setting [9]) it was 10 µM. In addition, the “CAv2.2 IC50 Ratio closed/inact.” value in assay [1] is given as 4.5.
On to `CC(C)([C@H]1C[C@H](NC(=O)c2ccc(C(F)(F)F)cc2S(C)(=O)=O)C1)S(=O)(=O)c1cc(F)cc(C(F)(F)F)c1` [Compound 592], for which the IC50 was 10 µM in assay [1] (setting [4]); 0.46 µM in assay [1] (setting [5]); at least 10 µM in assay [2] (setting [6]); at least 10 µM in assay [2] (setting [7]); at least 10 µM in assay [3] (setting [8]); 10 µM in assay [3] (setting [9]). For the same compound, the “CAv2.2 IC50 Ratio closed/inact.” value in assay [1] is 21.7. Also, the “CAv3.2 IC50 Ratio closed/inact.” value in assay [3] amounted to 1.
With `O=C(NC[C@H]1C[C@H](S(=O)(=O)c2cccc(C(F)(F)F)c2)C1)c1ccc(Cl)cn1` [Compound 573], the IC50 in assay [1] (setting [4]) was 3.24 µM; in assay [1] (setting [5]) it was 0.43 µM; in assay [2] (setting [6]), at least 10 µM; in assay [2] (setting [7]), at least 10 µM; in assay [3] (setting [8]) it was 8.12 µM; in assay [3] (setting [9]), 5.83 µM. In assay [1], the “CAv2.2 IC50 Ratio closed/inact.” value came out at 7.5. In addition, in assay [3], the “CAv3.2 IC50 Ratio closed/inact.” value is recorded as 1.4.
